Article PMC10533593 (Molecular Neurobiology, 2023)
One block for each compound: values may come before it.

Tests used:
[1] = target: human α1A adrenoreceptor fused to Rluc (human) (UniProt P35348); test: FRET or BRET; BRET saturation in intact HEK-293T cells: constant amount of cDNA of the Rluc-fused receptor, increasing amounts of cDNA of the YFP-fused receptor; coelenterazine H 5 μM; HBSS with 0.1% glucose; single-phase saturation fit
[2] = target: human dopamine D4 receptor, polymorphic variant D4.4R, fused to Rluc (human) (UniProt P21917); test: as above
[3] = target: T1, α1AR (Homo sapiens, UniProt P35348); format: cell-based; settings: antagonist 1 μM, added 10 min before A61603; alpha1AR alone
T1 construct: gene ADRA1A; non-fused full-length human alpha1AR in pcDNA3.1, transiently expressed in HEK-293T without D4R; Galphaq-Rluc or Galphas-Rluc, Ggamma2-YFP and Gbeta1 reporters co-transfected
T1 sequence (P35348 1-466): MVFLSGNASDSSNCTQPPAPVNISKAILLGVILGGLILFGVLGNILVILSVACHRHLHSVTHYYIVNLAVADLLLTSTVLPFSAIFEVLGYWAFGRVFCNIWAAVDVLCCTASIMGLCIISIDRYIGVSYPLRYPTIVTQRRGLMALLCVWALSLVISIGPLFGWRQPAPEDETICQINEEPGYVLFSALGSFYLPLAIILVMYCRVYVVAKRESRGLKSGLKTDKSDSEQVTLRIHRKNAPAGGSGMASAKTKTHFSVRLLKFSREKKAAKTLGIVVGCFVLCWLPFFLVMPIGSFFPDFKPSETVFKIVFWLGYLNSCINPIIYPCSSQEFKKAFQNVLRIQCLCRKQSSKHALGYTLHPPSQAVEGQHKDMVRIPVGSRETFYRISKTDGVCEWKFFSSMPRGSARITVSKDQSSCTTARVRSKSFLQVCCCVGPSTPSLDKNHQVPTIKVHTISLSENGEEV

[4] = target: T2, α1AR-D4.4R (D4.4R read-out) (Homo sapiens, UniProt P21917); test: BRET beta-arrestin-2-Rluc recruitment to alpha1AR-YFP in HEK-293T; format: cell-based
T2 construct: gene DRD4; D4.4R (non-fused) co-expressed with alpha1AR in HEK-293T; alpha1AR non-fused in Gi assay, alpha1AR-YFP in beta-arrestin-2 assay; with Alpha-1A adrenergic receptor
T2 sequence (P21917 1-419): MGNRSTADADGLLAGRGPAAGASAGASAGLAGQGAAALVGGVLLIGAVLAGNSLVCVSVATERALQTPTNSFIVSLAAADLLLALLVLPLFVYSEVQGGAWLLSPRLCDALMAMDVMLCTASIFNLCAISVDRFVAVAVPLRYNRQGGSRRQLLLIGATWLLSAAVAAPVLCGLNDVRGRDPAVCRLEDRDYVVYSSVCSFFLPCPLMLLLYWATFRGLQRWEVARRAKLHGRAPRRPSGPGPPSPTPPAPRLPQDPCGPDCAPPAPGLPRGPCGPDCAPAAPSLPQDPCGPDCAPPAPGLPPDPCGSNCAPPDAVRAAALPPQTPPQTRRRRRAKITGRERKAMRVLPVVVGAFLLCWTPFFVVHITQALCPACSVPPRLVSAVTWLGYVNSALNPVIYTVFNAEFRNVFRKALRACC
T2 sequence (P35348 1-466 partner): T1 sequence (P35348 1-466)
Description: BRET beta-arrestin-2-Rluc recruitment to alpha1AR-YFP in HEK-293T on α1AR-D4.4R (D4.4R read-out)

[5] = target: T1, α1AR; test: BRET Gq and Gs activation in HEK-293T; format: cell-based; settings: agonist; alpha1AR alone; 10 μM dopamine; intact cells
[6] = target: T3, D4.4R (Homo sapiens, UniProt P21917); format: cell-based; settings: antagonist 1 μM, added 10 min before dopamine; D4.4R alone
T3 construct: gene DRD4; non-fused full-length human D4.4R in pcDNA3.1, transiently expressed in HEK-293T without alpha1AR; Galphai1-Rluc, Ggamma2-YFP and Gbeta1 reporters co-transfected
T3 sequence (P21917 1-419): T2 sequence (P21917 1-419)

BRET50 [1]: 25
Compound: human dopamine D4 receptor, polymorphic variant D4.7R, fused to YFP

BRET50 [2]: 33
Compound: human α1A adrenoreceptor fused to YFP (from UniProt P35348 1-466)

Compound: COc1cc2nc(N3CCN(C(=O)c4ccco4)CC3)nc(N)c2cc1OC [prazosin]
BRET Gq and Gs activation in HEK-293T, antagonism of A61603 [3]: the effect of A61603 was counteracted by prazosin

EC50 [4]: 30 ± 19 nM
Compound: Cc1cccc(NC(=O)CN2CCC(c3ccccn3)CC2)c1 [A412997]

% of norepinephrine effect at 10 μM [5]: < 50%
Compound: NCCc1ccc(O)c(O)c1 [dopamine]

Compound: Clc1ccc(N2CCN(Cc3c[nH]c4ncccc34)CC2)cc1 [L745870]
BRET Gi1 activation in HEK-293T, antagonism of dopamine [6]: the selective D4R antagonist L745870, but not the α1AR antagonist prazosin, antagonized the effect of dopamine
